Earlier results in US20210077498A1, “TRANSIENT PROTECTION OF HEMATOPOIETIC STEM AND PROGENITOR CELLS AGAINST IONIZING RADIATION” (G1 Therapeutics, Inc., priority 2015, published 2021).

Tests used:
[1] = in vivo; cited from earlier work
[2] = test system: mice exposed to peri-lethal and lethal TBI; details: compared to untreated controls; cited from earlier work
[3] = test system: CDK4/6-dependent cell lines; details: cited from earlier work
[4] = test system: CDK4/6 independent Rb-null melanoma cell line A2058; details: cited from earlier work

In the case of `O=C1NC(=O)c2c1c1c3ccccc3[nH]c1c1[nH]c3cc(Br)ccc3c21` [Formula 2BrIC, 2-bromo-12,13-dihydro-5H-indolo[2,3-a]pyrrolo[3,4]carbazole-5,6-dione], the bioavailability [1] is listed as “restricted bioavailability”, the “HSPC protection and survival after TBI” value [2] is listed as “protect HSPCs and improve survival of mice” and the IR protection [3] is listed as “exhibited IR protective characteristics”. The G1 arrest [4] was “did not G1 arrest” and the “protection from IR exposure” value [4] was “failed to protect”.
